From article PMC10002493, “Direct Oral FXa Inhibitors Binding to Human Serum Albumin: Spectroscopic, Calorimetric, and Computational Studies” (International Journal of Molecular Sciences, 2023)
Structures can show the parent of a compound that is named as a salt. Where two headings read alike, the source gives them in different places.

What was measured:
[1] = test system: T1, human serum albumin (HSA); test: Steady-state fluorescence quenching of HSA (Stern–Volmer analysis); format: binding; settings: for Ksv (Stern–Volmer constant): 0.10 M tris-HCl pH 7.4, 0.10 M NaCl, 2 µM HSA, 0–20 µM drug, λex 295 nm; for Ksv of salt compared to the neutral compound: 298 K and 310 K
T1 construct: purchased Sigma-Aldrich
Experimental: The fluorescence intrinsic to proteins is attributed to aromatic amino acid residues, such as tryptophan (Trp), phenylalanine (Phe), and tyrosine (Tyr). The fluorescence of HSA in particular can be traced back to its tyrosine and tryptophan residues, therefore the experiments were performed with an excitation wavelength of 295 nm, because tryptophan absorbs light in this range [33]. HSA has a single tryptophan residue (Trp-214) close to the Sudlow site I (subdomain IIA), responsible for the main fluorescence emission of the protein [34, 35]. Binding to this site induces fluorescence quenching, which is a very helpful tool to evaluate different drugs’ interactions with HSA.
Sample measurements were recorded in 0.10 M tris-HCl buffer pH 7.4 with 0.10 M NaCl, 2 µM HSA, 0–20 µM FXa inhibitors respectively (λex = 295 nm).
The quenching process of HSA can be described as static or dynamic. Static quenching occurs when HSA forms complexes with anticoagulants in the ground state, whereas dynamic quenching occurs via diffusion-controlled encounters in the excited state. Consequently, temperature affects the quenching processes in a different manner. The Stern–Volmer constant has a temperature dependence: Ksv in a dynamic process increases with temperature due to the necessity of successful diffusion and collision of the FXa inhibitors with the tryptophan residues of HSA. In a static quenching process, Ksv decreases with rising temperature, due to the diminished stability of the complex in the ground state. The quenching process of HSA can be analyzed by the Stern–Volmer equation, which provides helpful information regarding the binding process. Table 1 and Figure 4 summarize the Ksv of the HSA-FXa inhibitor complexes at 298 K and 310 K respectively. The Ksv of betrixaban and edoxaban were compared with their respective salts, betrixaban maleate (BEM) and edoxaban tosylate hydrate (EDT).
Fluorescence emission spectra were collected on a Perkin Elmer LS55 fluorimeter, using 5 nm bandwidths for excitation and emission. Samples were excited at 295 nm and 298 K or 310 K, respectively. Subsequently, HSA fluorescence was measured at 350 nm decreases, in the presence of different anticoagulants, corrected by the inner-filter effect using Equation (1) where Icorr and Iobs correspond to fluorescence corrected and obtained intensities, and Aex and Aem correspond to the absorbance at the excitation and emission wavelengths. The quenching data were evaluated using the Stern–Volmer Equation (2), where I0 and I are the fluorescence intensities of the HSA in the absence or presence of anticoagulants (Q, quenchers), and Ksv is the Stern–Volmer constant:(1) Icorr=Iobs×10^Aex+Aem/2 (2) I0/I=1+KsvQ

fatty-acid-free HSA = molecular target: T2, fatty-acid-free HSA; test: Isothermal titration calorimetry (ITC) of anticoagulants with HSA; set-up: species or system human; settings: phosphate buffer 10 mM, pH 7.4, 298 K, one-site binding model
T2 construct: purchased Sigma-Aldrich
Experimental: (§1) ITC analyses were performed in phosphate buffer, 10 mM, pH = 7.4. […] Lower ionization enthalpy reduces heat signals associated with proton-exchange reactions between the buffer and the ligand/host system during complex formation. […] A plot of the heat released per mole of HSA as a function of the molar ratio of the solution ([HSA]/[anticoagulant]) is shown at the foot of each figure. […] Control titrations were performed (drug over buffer) and subtracted from each analysis before the fitting.
(§2) ITC data were obtained using a MicroCal PEAQ-ITC instrument (Malvern Panalytical). […] Working solutions were prepared using aliquots of the stock solutions of anticoagulants diluted in phosphate buffer, 10 mM, pH = 7.4. […] The first injection was 0.40 μL, followed by 12 injections of 3.0 μL. Reference power was set to 5 μcal/s, 500 rpm stirring speed, initial delay of 60 s, and injection spacing of 150 s. Titration curves were drawn in duplicate and the thermodynamic parameters were fitted to the one-site binding model using Microcal PEAQ-ITC analysis software. Controls were measured by recording the heat effects of the titrant over plain buffer and were subtracted from thermograms before fitting analysis. All the measurements were performed in duplicate.

HSA fatty acid-free = test system: HSA fatty acid-free; set-up: method as in PMID 29680174; settings: Tris–HCl (0.10 M NaCl) DMSO 2%, FS, cited from earlier work
HSA: heme-Fe(III) = test system: HSA: heme-Fe(III); set-up: method as in PMID 32279215; settings: pH 7.3, 20 °C, Phosphate 2.0 × 10^−2 M DMSO 10%, binding site IB, UV; cited from earlier work
[2] = Aqueous solubility observed in preparing ITC solutions; format: physicochemical; settings: also with solvent mixtures that included ethanol and DMSO, prevented ITC data
Experimental: as §1, §2

[3] = reversible protein–drug complexes; cited from earlier work
BSA = settings: binding site IIA, FS, cited from earlier work
[4] = set-up: method as in PMID 32279215; settings: rivaroxaban-treated patients; cited from earlier work

| Structure (SMILES) | KITC binding constant (fatty-acid-free HSA) [M⁻¹] | aqueous solubility [2] | aqueous solubility ([2]; listed as edoxaban) | aqueous solubility ([2]; listed as rivaroxaban) | Ksv (Stern–Volmer constant) ([1]; 298 K) | Ksv (Stern–Volmer constant) ([1]; 310 K) | K (HSA fatty acid-free; pH 7.4, 28 °C, binding site IIA) [M⁻¹] | K (HSA fatty acid-free; pH 7.4, 37 °C, binding site IB) [M⁻¹] | K (HSA fatty acid-free; pH 7.4, 45 °C, binding site IB) [M⁻¹] | K (HSA: heme-Fe(III)) [M⁻¹] | Ksv of salt compared to the neutral compound [1] | binding to plasma proteins [3] [%] | K (BSA; pH 7.4, 25 °C, Phosphate DMSO 0.3%) [M⁻¹] | K (BSA; pH 7.4, 30 °C, Phosphate DMSO 0.3%) [M⁻¹] | K (BSA; pH 7.4, 35 °C, Phosphate buffer DMSO 0.3%) [M⁻¹] | adjusted risk of bleeding per 1.0 g/dL incremental decrease in albumin [4] [fold] |
| --- | --- | --- | --- | --- | --- | --- | --- | --- | --- | --- | --- | --- | --- | --- | --- | --- |
| CN1CCc2nc(C(=O)N[C@@H]3C[C@@H](C(=O)N(C)C)CC[C@@H]3NC(=O)C(=O)Nc3ccc(Cl)cn3)sc2C1 [ED, edoxaban] | – | poor aqueous solubility | low water solubility | – | 1.60 ± 0.04 ×10^4 M^−1 | 1.28 ± 0.05 ×10^4 M^−1 | – | – | – | 769000 | – | 55 | – | – | – | – |
| COc1ccc(NC(=O)c2ccc(C(=N)N(C)C)cc2)c(C(=O)Nc2ccc(Cl)cn2)c1 [BE, betrixaban] | – | poor aqueous solubility | – | – | 1.86 ± 0.03 ×10^4 M^−1 | 1.44 ± 0.04 ×10^4 M^−1 | – | – | – | 1.61e+06 | – | – | – | – | – | – |
| COc1ccc(NC(=O)c2ccc(C(=N)N(C)C)cc2)c(C(=O)Nc2ccc(Cl)cn2)c1 [BEM, betrixaban maleate] | 1600 | – | – | – | 1.59±0.05 ×10^4 M^−1 | 1.36±0.03 ×10^4 M^−1 | – | – | – | – | no significant differences | – | – | – | – | – |

Continued, in another order:

| KITC binding constant (fatty-acid-free HSA) [M⁻¹] | aqueous solubility [2] | aqueous solubility ([2]; listed as edoxaban) | aqueous solubility ([2]; listed as rivaroxaban) | Structure (SMILES) | Ksv (Stern–Volmer constant) ([1]; 298 K) | Ksv (Stern–Volmer constant) ([1]; 310 K) | K (HSA fatty acid-free; pH 7.4, 28 °C, binding site IIA) [M⁻¹] | K (HSA fatty acid-free; pH 7.4, 37 °C, binding site IB) [M⁻¹] | K (HSA fatty acid-free; pH 7.4, 45 °C, binding site IB) [M⁻¹] | K (HSA: heme-Fe(III)) [M⁻¹] | Ksv of salt compared to the neutral compound [1] | binding to plasma proteins [3] [%] | K (BSA; pH 7.4, 25 °C, Phosphate DMSO 0.3%) [M⁻¹] | K (BSA; pH 7.4, 30 °C, Phosphate DMSO 0.3%) [M⁻¹] | K (BSA; pH 7.4, 35 °C, Phosphate buffer DMSO 0.3%) [M⁻¹] | adjusted risk of bleeding per 1.0 g/dL incremental decrease in albumin [4] [fold] |
| --- | --- | --- | --- | --- | --- | --- | --- | --- | --- | --- | --- | --- | --- | --- | --- | --- |
| 5560 | – | – | – | COc1ccc(-n2nc(C(N)=O)c3c2C(=O)N(c2ccc(N4CCCCC4=O)cc2)CC3)cc1 [AP, apixaban] | 3.36 ± 0.03 ×10^4 M^−1 | 2.79 ± 0.02 ×10^4 M^−1 | 3410 | 2460 | 1670 | 2.78e+06 | – | – | – | – | – | – |
| – | poor aqueous solubility | – | – | CN1CCc2nc(C(=O)N[C@@H]3C[C@@H](C(=O)N(C)C)CC[C@@H]3NC(=O)C(=O)Nc3ccc(Cl)cn3)sc2C1.Cc1ccc(S(=O)(=O)O)cc1.O [EDT, Edoxaban tosylate hydrate] | 1.79±0.03 ×10^4 M^−1 | 1.27±0.02 ×10^4 M^−1 | – | – | – | – | no significant differences | – | – | – | – | – |
| – | poor aqueous solubility | – | low water solubility | O=C(NC[C@H]1CN(c2ccc(N3CCOCC3=O)cc2)C(=O)O1)c1ccc(Cl)s1 [RV, rivaroxaban] | 1.56 ± 0.03 ×10^4 M^−1 | 0.98 ± 0.04 ×10^4 M^−1 | – | – | – | 455000 | – | 95 | 132000 | 18200 | 4370 | 4.4 |
